Where a name gives a salt, the structure may show the parent alone. Read-outs that look alike come from different tables or passages of the source.
Columns and labels:
hTP = target: T1, hTP (Homo sapiens, UniProt P21731); test: Other receptors functional EC50: hTP; format: cell-based
T1 sequence (P21731 1-343): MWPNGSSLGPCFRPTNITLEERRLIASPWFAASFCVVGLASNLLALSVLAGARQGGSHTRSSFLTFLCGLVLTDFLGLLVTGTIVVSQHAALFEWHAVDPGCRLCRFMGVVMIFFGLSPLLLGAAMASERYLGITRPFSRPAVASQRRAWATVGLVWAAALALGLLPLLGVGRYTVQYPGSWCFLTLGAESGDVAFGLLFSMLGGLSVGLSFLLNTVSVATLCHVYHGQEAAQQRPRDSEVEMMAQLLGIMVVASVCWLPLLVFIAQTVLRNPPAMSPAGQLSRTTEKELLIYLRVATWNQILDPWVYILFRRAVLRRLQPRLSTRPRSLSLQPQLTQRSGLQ
Description: (§1) U.S. patent application Ser. No. 11/553,143, filed on Oct. 26, 2006, now issued as U.S. Pat. No. 7,427,685 incorporated by reference herein, describes the methods used to obtain the in vitro data in the tables below.

hDP = target: T2, hDP (Homo sapiens, UniProt Q13258); test: Other receptors functional EC50: hDP; format: cell-based
T2 sequence (Q13258 1-359): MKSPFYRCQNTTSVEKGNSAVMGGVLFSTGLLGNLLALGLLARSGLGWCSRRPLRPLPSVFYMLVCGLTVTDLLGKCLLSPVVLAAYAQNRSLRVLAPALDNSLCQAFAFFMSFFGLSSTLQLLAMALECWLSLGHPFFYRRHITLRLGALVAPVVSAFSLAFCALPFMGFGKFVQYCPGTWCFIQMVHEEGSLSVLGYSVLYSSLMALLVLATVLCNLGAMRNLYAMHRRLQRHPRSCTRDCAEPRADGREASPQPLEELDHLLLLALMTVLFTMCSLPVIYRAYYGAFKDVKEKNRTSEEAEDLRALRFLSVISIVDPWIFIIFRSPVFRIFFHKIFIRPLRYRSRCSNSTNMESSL
Description: as §1

normotensive dogs [1] = test: Intraocular pressure in normotensive dogs; format: in vivo; conditions: once daily for 5 days
Description: (§2) U.S. Pat. No. 7,091,231 describes the methods used for these in vivo tests.

normotensive dogs [2] = test: Ocular surface hyperemia in normotensive dogs; format: in vivo; parameters: scale not given here
Description: as §2

EP2 [3] = target: T3, EP2 (Homo sapiens, UniProt P43116); test: EP2 binding (KI)
T3 sequence (P43116 whole entry): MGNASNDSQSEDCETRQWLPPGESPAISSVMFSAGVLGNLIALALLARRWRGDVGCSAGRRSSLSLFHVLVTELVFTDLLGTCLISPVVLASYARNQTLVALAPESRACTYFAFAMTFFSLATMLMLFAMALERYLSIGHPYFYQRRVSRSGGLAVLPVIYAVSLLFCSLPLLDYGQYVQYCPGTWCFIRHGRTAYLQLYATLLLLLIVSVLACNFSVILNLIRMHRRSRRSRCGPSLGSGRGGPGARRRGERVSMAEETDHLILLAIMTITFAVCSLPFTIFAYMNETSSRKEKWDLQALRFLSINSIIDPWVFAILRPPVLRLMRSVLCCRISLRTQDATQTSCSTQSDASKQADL
Description: as §1

EP4 [4] = target: T4, EP4 (Homo sapiens, UniProt P35408); test: EP4 binding (KI)
T4 sequence (P35408 whole entry): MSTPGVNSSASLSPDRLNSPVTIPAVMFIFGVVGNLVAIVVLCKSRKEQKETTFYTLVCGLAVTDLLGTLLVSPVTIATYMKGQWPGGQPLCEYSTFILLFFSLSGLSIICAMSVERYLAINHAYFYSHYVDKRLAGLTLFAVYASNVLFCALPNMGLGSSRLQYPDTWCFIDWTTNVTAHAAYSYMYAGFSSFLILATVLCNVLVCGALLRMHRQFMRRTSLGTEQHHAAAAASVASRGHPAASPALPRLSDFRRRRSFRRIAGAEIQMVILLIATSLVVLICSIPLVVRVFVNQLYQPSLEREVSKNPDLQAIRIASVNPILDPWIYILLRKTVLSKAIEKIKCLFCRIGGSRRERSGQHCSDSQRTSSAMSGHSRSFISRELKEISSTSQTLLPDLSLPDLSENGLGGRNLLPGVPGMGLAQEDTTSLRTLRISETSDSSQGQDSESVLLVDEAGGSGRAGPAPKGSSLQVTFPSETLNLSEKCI
Description: as §1

EP4 [5] = target: T4, EP4; test: EP4 flipr functional assay; format: cell-based; conditions: read-out: EP4 data filpr EC50
Description: as §1

hEP3A = target: T5, hEP3A (Homo sapiens, UniProt P43115); test: Other receptors functional EC50: hEP3A; format: cell-based
T5 sequence (P43115 1-390): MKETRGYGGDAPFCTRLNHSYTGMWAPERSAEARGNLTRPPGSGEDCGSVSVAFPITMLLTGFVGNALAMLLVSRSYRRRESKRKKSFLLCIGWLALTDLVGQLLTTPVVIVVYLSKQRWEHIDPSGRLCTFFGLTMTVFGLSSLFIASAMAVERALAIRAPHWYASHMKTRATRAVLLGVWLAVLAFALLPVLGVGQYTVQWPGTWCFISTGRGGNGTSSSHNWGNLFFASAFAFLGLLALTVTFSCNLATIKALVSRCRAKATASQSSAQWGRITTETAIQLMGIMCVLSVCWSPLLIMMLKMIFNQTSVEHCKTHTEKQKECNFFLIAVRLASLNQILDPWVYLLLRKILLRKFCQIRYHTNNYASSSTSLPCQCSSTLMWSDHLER
Description: as §1

EP2 [6] = target: T3, EP2; test: EP2 flipr functional assay; format: cell-based
Description: as §1

EP2 [7] = target: T3, EP2; test: EP2 cAMP assay; format: cell-based
Description: as §1

[8] = 0.001%, once daily for 5 days, at 50 h

O=C(O)c1ccc(CCC[C@@H]2[C@@H](CSc3cc(F)cc(F)c3)[C@H](O)C[C@H]2Cl)s1
EC50 (hTP): 5310 nM
EC50 (hDP): 9690 nM

CCN(CC)CCOC(=O)c1ccc(CCC[C@@H]2[C@@H](CCc3cc(Cl)cc(Cl)c3)[C@H](O)C[C@H]2Cl)s1 [2-(Diethylamino)ethyl 5-(3-((1R,2R,3R,5R)-5-chloro-2-(3,5-dichlorophenethyl)-3-hydroxycyclopentyl)propyl)thiophene-2-carboxylate hydrochloride]
maximum intraocular pressure (IOP) decrease from baseline (normotensive dogs [1]; 0.0005%, at 28 h): 5.3 mmHg
inhibition in vivo at 0.0005 % (normotensive dogs [1]; Canis lupus familiaris, 0.0005%, at 28 h, read-out: maximum intraocular pressure (IOP) decrease from baseline): 33%
maximum ocular surface hyperemia (OSH) score (normotensive dogs [2]; 0.0005%, once daily for 5 days, at 98 h): 1.25

CCN(CC)CCOC(=O)c1ccc(CCC[C@@H]2[C@@H](CCc3cc(Cl)cc(Cl)c3)[C@H](O)C[C@H]2Cl)s1 [2-(Diethylamino)ethyl 5-(3-((1R,2R,3R,5R)-5-chloro-2-(3,5-dichlorophenethyl)-3-hydroxycyclopentyl)propyl)thiophene-2-carboxylate]
maximum intraocular pressure (IOP) decrease from baseline (normotensive dogs [1]; 0.001%, at 78 h): 6.9 mmHg
inhibition in vivo at 0.001 % (normotensive dogs [1]; Canis lupus familiaris, 0.001%, at 78 h, read-out: maximum intraocular pressure (IOP) decrease from baseline): 47%
maximum ocular surface hyperemia (OSH) score (normotensive dogs [2]; 0.001%, once daily for 5 days, at 28 h): 1.8

O=C(O)c1ccc(CCC[C@@H]2[C@@H](CCc3cc(Cl)cc(Cl)c3)[C@H](O)C[C@H]2Cl)s1 [5-(3-((1R,2R,3R,5R)-5-chloro-2-(3,5-dichlorophenethyl)-3-hydroxycyclopentyl)propyl)thiophene-2-carboxylic acid]
maximum ocular surface hyperemia (OSH) score (normotensive dogs [2]; 0.0001%, once daily for 5 days, at 74 h): 0.8
maximum ocular surface hyperemia (OSH) score (normotensive dogs [2]; 0.0005%, once daily for 5 days, at 50 h): 1.75
maximum ocular surface hyperemia (OSH) score (normotensive dogs [2]; [8]): 1.8
maximum ocular surface hyperemia (OSH) score (normotensive dogs [2]; 0.01%, once daily for 5 days, at 26 h): 2.5

O=C(O)c1ccc(CCC[C@@H]2[C@@H](C[S+]([O-])c3cc(Cl)cc(Cl)c3)[C@H](O)C[C@H]2Cl)s1 (stereo partly drawn) [5-(3-((1R,2R,3R,5R)-5-chloro-2-((3,5-dichlorophenylsulfinyl)methyl)-3-hydroxycyclopentyl)propyl)thiophene-2-carboxylic acid]
maximum intraocular pressure (IOP) decrease from baseline (normotensive dogs [1]; 0.005%, at 4 h): 3.1 mmHg
inhibition in vivo at 0.005 % (normotensive dogs [1]; Canis lupus familiaris, 0.005%, at 4 h, read-out: maximum intraocular pressure (IOP) decrease from baseline): 21%
maximum ocular surface hyperemia (OSH) score (normotensive dogs [2]; 0.005%, once daily for 5 days, at 30 h): 1.4

O=C(O)c1ccc(CCC[C@@H]2[C@@H](CSc3cc(Cl)cc(Cl)c3)[C@H](O)C[C@H]2Cl)s1 [5-(3-((1R,2R,3R,5R)-5-chloro-2-((3,5-dichlorophenylthio)methyl)-3-hydroxycyclopentyl)propyl)-thiophene-2-carboxylic acid]
maximum intraocular pressure (IOP) decrease from baseline (normotensive dogs [1]; 0.01%, at 6 h): 6.3 mmHg
inhibition in vivo at 0.01 % (normotensive dogs [1]; Canis lupus familiaris, 0.01%, at 6 h, read-out: maximum intraocular pressure (IOP) decrease from baseline): 35%
maximum ocular surface hyperemia (OSH) score (normotensive dogs [2]; 0.01%, once daily for 5 days, at 52 h): 1.7

O=C(O)c1ccc(CCC[C@@H]2[C@@H](CNc3cc(Cl)cc(Cl)c3)[C@H](O)C[C@H]2Cl)s1 [5-(3-((1R,2S,3R,5R)-5-chloro-2-((3,5-dichlorophenylamino)methyl)-3-hydroxycyclopentyl)propyl)thiophene-2-carboxylic acid]
maximum intraocular pressure (IOP) decrease from baseline (normotensive dogs [1]; 0.001%, at 6 h): 2.6 mmHg
inhibition in vivo at 0.001 % (normotensive dogs [1]; Canis lupus familiaris, 0.001%, at 6 h, read-out: maximum intraocular pressure (IOP) decrease from baseline): 18%
maximum ocular surface hyperemia (OSH) score (normotensive dogs [2]; 0.001%, once daily for 5 days, at 76 h): 1.5

O=C(O)CCCCCC[C@@H]1[C@@H](CCc2cc(Cl)cc(Cl)c2)[C@H](O)C[C@H]1Cl [7-{(1R,2R,3R,5R)-5-Chloro-2-[2-(3,5-dichloro-phenyl)-ethyl]-3-hydroxy-cyclopentyl}-heptanoic acid]
maximum ocular surface hyperemia (OSH) score (normotensive dogs [2]; 0.01%, once daily for 5 days, at 74 h): 0.8

O=C(O)c1ccc(CCC[C@@H]2[C@@H](CCc3cc(Cl)nc(Cl)c3)[C@H](O)C[C@H]2Cl)s1 [11b, 5-(3-((1R,2R,3R,5R)-5-chloro-2-(2-(2,6-dichloropyridin-4-yl)ethyl)-3-hydroxycyclopentyl)propyl)-thiophene-2-carboxylic acid]
maximum ocular surface hyperemia (OSH) score (normotensive dogs [2]; 0.001%, once daily for 4 days, at 74 h): 1.9

O=C(O)c1ccc(CCC[C@@H]2[C@@H](CCc3cc(Cl)cc(CO)c3)[C@H](O)C[C@H]2Cl)s1 [11c, 5-(3-((1R,2R,3R,5R)-5-chloro-2-(3-chloro-5-(hydroxymethyl)phenethyl)-3-hydroxycyclopentyl)propyl)thiophene-2-carboxylic acid]
maximum ocular surface hyperemia (OSH) score (normotensive dogs [2]; [8]): 0.8

CC(C)OC(=O)c1ccc(CCC[C@@H]2[C@@H](CCc3cc(Cl)cc(CO)c3)[C@H](O)C[C@H]2Cl)s1 [Isopropyl 5-(3-((1R,2R,3R,5R)-5-chloro-2-(3-chloro-5-(hydroxymethyl)phenethyl)-3-hydroxycyclopentyl)propyl)thiophene-2-carboxylate]
maximum ocular surface hyperemia (OSH) score (normotensive dogs [2]; 0.001%, once daily for 5 days, at 26 h): 0.9

O=C(O)c1ccc(CCC[C@@H]2[C@@H](CNc3cc(Cl)cc(Cl)c3)[C@H](O)C[C@H]2Cl)s1 [drawing 6]
Ki (EP2 [3]): 1.5 nM
Ki (EP4 [4]): 678 nM
EC50 (EP4 [5]): 5580 nM
EC50 (hEP3A): 7140 nM
EC50 (EP2 [6]): 20 nM
EC50 (EP2 [7]): 0.09 nM

O=C(O)c1ccc(CCC[C@@H]2[C@@H](C[S+]([O-])c3cc(Cl)cc(Cl)c3)[C@H](O)C[C@H]2Cl)s1 (some centres unmarked) [drawing 8]
Ki (EP4 [4]): > 1000 nM

From patent US7947732B2, “Therapeutic substituted chlorocyclopentanols” (Allergan, Inc., priority 2007, dated 2011)
